Measured values reported in publication PMC4392921 (Diabetes, 2014).

Tested on: CD4+ T-cell clones specific for modified GAD65 epitopes
Experiment: T-cell clone proliferation assay, [3H]-thymidine incorporation
Assay type: cell-based, human
Conditions: GAD154E,164E-specific T cells (data not shown)

Substance: TTG-treated GAD: GAD65 protein unfolded by heating and treated with transglutaminase
- proliferation in response to treated GAD protein: not able to proliferate
